Data as given in article PMC9866339, “In Silico and In Vitro Study of Janus Kinases Inhibitors from Naphthoquinones” (Molecules, 2023).
Like-named read-outs stand apart in the source and are kept apart here.

Experiments:
TF1 cells [1] = test: Presto Blue cytotoxicity assay on TF1 cells; format: cell-based, human; settings: for Cytotoxicity screening on TF1 cells: 10 μM, Presto Blue assay, result in words; for IC50: Homo sapiens, TF-1, 72 h, read-out: IC50 against TF1 cell viability
Method: (§1) The cytotoxicity activity of naphthoquinones against both TF1 and HEL cells was performed using the Presto Blue assay. The TF1 (50,000 cells/well) and HEL (25,000 cells/well) cell suspensions were seeded in a 96-well microplate and incubated overnight at 37 °C. […] The absorbance of the resorufin product was measured at 570 nm using a microplate reader (Infinite M200 microplate reader, Tecan, Männedorf, Switzerland) after adding 10 μL of Presto Blue reagent in TF1 and HEL cells, which incubated at 37 °C for 1 h. The treatment without compounds/known drugs was used as vehicle control.

TF1 cells [2] = settings: at IC50, 72 h, dot plot quadrant
Method: Subsequently, cells were harvested after being centrifuged at 1000 rpm for 5 min. The pellets were resuspended and incubated with 5 μL of caspase 3/7 reagent (MCH100108, Merk, Germany). Reactions were then incubated at 37 °C for 30 min and then mixed with 7-aminoactinomycin D (7-ADD). The number of apoptosis cells was analyzed by flow cytometry using the cell analyzer MUSE (Merck-MiIIipore, Burlington, MA, USA). All experiments were independently performed three times.

TF1 cells [3] = settings: at IC50, 72 h, dot plot quadrant; remark: listed apart in the source
Method: The cells were then harvested after being centrifuged at 1000 rpm for 5 min. Then, the pellets were resuspended and incubated for 25 min at room temperature in the dark with annexin V and dead cell reagent (MCH100105, Merk, Germany). The apoptosis was assessed by a flow cytometry MUSE (Merck-MiIIipore, Burlington, MA, USA) analyzer. All experiments were independently performed three times.

HEL cells = test: Presto Blue cytotoxicity assay on HEL cells; format: cell-based, human; settings: for Cytotoxicity screening on HEL cells: 10 μM, result in words; for IC50: Homo sapiens, HEL, 72 h, read-out: IC50 against HEL cell viability
Method: as §1

JAK2 = target: T1, JAK2 (Homo sapiens, UniProt O60674); test: ADP-Glo kinase assay, JAK2; format: biochemical; settings: 5 μM ATP, read-out: IC50 ± SEM JAK2
T1 construct: purchased Sigma-Aldrich SRP0171
T1 sequence (O60674 808-1132 limits assumed): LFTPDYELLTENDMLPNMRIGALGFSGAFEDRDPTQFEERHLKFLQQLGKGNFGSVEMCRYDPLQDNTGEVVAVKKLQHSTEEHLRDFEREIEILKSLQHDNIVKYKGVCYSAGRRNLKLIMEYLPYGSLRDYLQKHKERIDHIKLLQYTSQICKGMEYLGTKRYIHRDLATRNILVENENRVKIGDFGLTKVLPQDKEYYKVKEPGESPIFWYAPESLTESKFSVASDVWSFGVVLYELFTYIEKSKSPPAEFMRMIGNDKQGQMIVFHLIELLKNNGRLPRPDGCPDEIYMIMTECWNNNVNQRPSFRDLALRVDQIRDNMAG
Method: (§2) The tyrosine kinase inhibition of JAK2 and JAK3 was performed using the ADP-Glo™ kinase assay (Promega). The 2.5 ng/μL of enzymes (Sigma-Aldrich), JAK2 (SRP0171), and JAK3 (SRP0173) were mixed with 1 μM of compounds/known drugs, 5 μM ATP and 2 ng/μL poly(glu·tyr), in a buffer (40 mM Tris−HCI pH 7.5, 20 mM MgCl2, and 0.1 mg/mL BSA). The reactions were incubated for 1 h at room temperature. Then, 5 μL of the ADP-Glo reagent was added and incubated for 40 min. Next, 10 μL of kinase detection reagent was added and incubated at room temperature for 30 min to convert ADP to ATP product. The ATP was detected by measuring the luminescence using a microplate reader. The relative inhibition (%) of compounds/known drugs was calculated and compared to the control without compounds/known drugs.

human keratinocytes = test system: human keratinocytes; parameters: method as in PMID 28250347, PMID 22845014; settings: result in words; cited from earlier work
JAK3 = target: T2, JAK3 (Homo sapiens, UniProt P52333); test: ADP-Glo kinase assay, JAK3; format: biochemical; settings: 5 μM ATP, read-out: IC50 ± SEM JAK3
T2 construct: purchased Sigma-Aldrich SRP0173
T2 sequence (P52333 781-1124 limits assumed): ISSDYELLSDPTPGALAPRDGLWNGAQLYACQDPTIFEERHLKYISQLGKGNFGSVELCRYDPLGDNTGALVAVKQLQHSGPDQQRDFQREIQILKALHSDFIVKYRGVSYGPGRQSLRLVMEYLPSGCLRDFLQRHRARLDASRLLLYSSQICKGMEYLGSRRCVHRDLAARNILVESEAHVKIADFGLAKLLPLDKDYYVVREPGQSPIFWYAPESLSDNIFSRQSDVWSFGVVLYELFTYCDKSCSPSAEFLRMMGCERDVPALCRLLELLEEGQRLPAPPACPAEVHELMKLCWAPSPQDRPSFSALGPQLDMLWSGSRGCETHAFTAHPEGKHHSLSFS
Method: as §2

HEL cell = settings: read-out: IC50 HEL cell growth; cited from earlier work
JAK1 = settings: read-out: IC50 JAK1; cited from earlier work

Structure (SMILES): CCC(=O)c1cc2c(o1)C(=O)c1ccccc1C2=O [2′-methyl napabucasin]
- Cytotoxicity screening on TF1 cells (TF1 cells [1]): highly potent cell growth inhibition
- IC50 (TF1 cells [1]): 18.1 µM
- Apoptotic cells, caspase 3/7 (TF1 cells [2]): 13.50%
- Apoptotic/Dead cells, caspase 3/7 (TF1 cells [2]): 22.35%
- Dead cells, caspase 3/7 (TF1 cells [2]): 0.70%
- Live cells, caspase 3/7 (TF1 cells [2]): 63.45%
- Dead cells, annexin V (TF1 cells [3]): 1.10%
- Early Apop. cells, annexin V (TF1 cells [3]): 25.42%
- Late Apop./Dead cells, annexin V (TF1 cells [3]): 51.16%
- Live cells, annexin V (TF1 cells [3]): 22.32%
- Cytotoxicity screening on HEL cells (HEL cells; Presto Blue assay): highly potent cell growth inhibition
- IC50 (HEL cells): 6.65 µM
- IC50 (JAK2): 0.0111 ± 0.00013 µM
- Cytotoxicity against human keratinocytes (human keratinocytes): potent cytotoxicity
- IC50 (JAK3): 0.0102 ± 0.00066 µM

Structure (SMILES): N#Cc1ccc(C2C3=C(CCCC3=O)OC3=C2C(=O)c2ccccc2C3=O)cc1 (stereo not shown) [CM363]
- IC50 (HEL cell): 1.3 µM

Structure (SMILES): O=C1C=CC(=O)c2c(O)cccc21 [Juglone, juglone]
- IC50 (HEL cells; Presto Blue assay, mean ± SEM): 8.67 ± 0.17 µM

Structure (SMILES): O=C1C=C(O)C(=O)c2ccccc21 [Lawsone, 2-hydroxy-1,4-naphthoquinone]
- Cytotoxicity screening on TF1 cells (TF1 cells [1]): inhibited the growth of both cell types poorly
- Cytotoxicity screening on HEL cells (HEL cells; Presto Blue assay): inhibited the growth of both cell types poorly

Structure (SMILES): CC1=CC(=O)c2ccccc2C1=O [Menadione, menadione]
- Cytotoxicity screening on HEL cells (HEL cells; Presto Blue assay): high cytotoxicity
- IC50 (HEL cells; Presto Blue assay, mean ± SEM): 7.99 ± 1.22 µM

Structure (SMILES): CC(=O)c1cc2c(o1)C(=O)c1ccccc1C2=O [Napabucasin, napabucasin]
- Cytotoxicity screening on TF1 cells (TF1 cells [1]): highly potent cell growth inhibition
- IC50 (TF1 cells [1]): 9.57 µM
- Apoptotic cells, caspase 3/7 (TF1 cells [2]): 25.85%
- Apoptotic/Dead cells, caspase 3/7 (TF1 cells [2]): 18.10%
- Dead cells, caspase 3/7 (TF1 cells [2]): 0.30%
- Live cells, caspase 3/7 (TF1 cells [2]): 55.75%
- Dead cells, annexin V (TF1 cells [3]): 3.50%
- Early Apop. cells, annexin V (TF1 cells [3]): 29.80%
- Late Apop./Dead cells, annexin V (TF1 cells [3]): 39.24%
- Cytotoxicity screening on HEL cells (HEL cells; Presto Blue assay): highly potent cell growth inhibition
- IC50 (HEL cells): 3.31 µM
- IC50 (JAK2): 0.0126 ± 0.00212 µM
- IC50 (JAK3): 0.0148 ± 0.00237 µM

Structure (SMILES): N#CC[C@H](C1CCCC1)n1cc(-c2ncnc3[nH]ccc23)cn1 [Ruxolitinib, ruxolitinib, reference compound]
- IC50 (TF1 cells [1]): 12.2 ± 0.58 µM
- IC50 (HEL cells): 26.04 ± 0.26 µM
